# Measurements taken from US20040121004A1, “Dosage forms containing a PPI, NSAID, and buffer” (priority 2002, published 2004).
# Key:
# [1] = Substance compatibility in granulations: potency by HPLC, initially and after storage; type: physicochemical; settings: for Potency NSAID, 2 Weeks Extreme Conditions: 2 weeks at 40° C. with 75% to 85% relative humidity; for Potency NSAID, 4 Weeks Extreme Conditions: 4 weeks at 40° C. with 75% to 85% relative humidity; for Potency NSAID, 19 Days RT: 19 days at room temperature; for Potency NSAID, 33 Days RT: 33 days at room temperature
# Protocol: In this example, granulations of a PPI and various NSAIDs were prepared to determine the compatibility of these substances with each other in a granulated form.
# The potency (mg/g) of each drug substance in each granulation was determined by HPLC.
# Granulations A, C, and D, as well as naproxen and piroxicam drug substances were weighed and separately placed in scintillation vials and stored at room temperature (RT) and at 40° C. with 75% to 85% relative humidity (“Extreme Conditions”). Granulations A, C, and D, as well as the naproxen and piroxicam, were tested for potency of the lansoprazole and NSAID after 19 and 33 days at the room temperature conditions and after two and four weeks under the Extreme Conditions.
# [2] = PPI/NSAID drug substance compatibility (storage stability of mixtures); type: physicochemical
# Protocol: Various NSAIDs were combined with lansoprazole with and without a buffer to determine the compatibility of the components. The various mixtures were placed at room temperature and 40° C. with 75% relative humidity. The samples were tested initially and after two weeks at the storage conditions above. The results are reported in Table 1 below as a percent of the theoretical amount of a given component.
SMILES,"Potency NSAID, 2 Weeks Extreme Conditions [1]","Potency NSAID, 4 Weeks Extreme Conditions [1]","Potency NSAID, 19 Days RT [1]","Potency NSAID, 33 Days RT [1]","% of Theory, lansoprazole, Initial ([2]; initial, percent of theoretical amount of lansoprazole)","% of Theory, lansoprazole, 40° C. 75% humidity ([2]; two weeks at 40° C. with 75% relative humidity)","% of Theory, lansoprazole, Room Temp. ([2]; two weeks at room temperature)"
"COc1ccc2cc([C@H](C)C(=O)O)ccc2c1 [Naproxen, naproxen]",NA/996.7 mg/g,NA/1000.9 mg/g,NA/997.2 mg/g,NA/998.2 mg/g,–,–,–
"Cc1c(OCC(F)(F)F)ccnc1C[S+]([O-])c1nc2ccccc2[nH]1 (centres unmarked) [Lansoprazole, lansoprazole]",–,–,–,–,100.8/NA %,99.1/NA %,99.1/NA %
"CN1C(C(=O)Nc2ccccn2)=C(O)c2ccccc2S1(=O)=O [Piroxicam, piroxicam]",NA/942.2 mg/g,NA/1005.5 mg/g,NA/1027.1 mg/g,NA/998.5 mg/g,–,–,–
